Test results reported in publication PMC8016481, “Tachykinin signaling inhibits task-specific behavioral responsiveness in honeybee workers” (eLife, 2021).
Values joined by “and” are separate entries in the source; they are usually repeats but may differ in a detail not shown here. Identical values can stand only once. Like-named read-outs stand apart in the source and are kept apart here. Ends that are not written are not given here.

Assays:
TRPR [1] = tested on: TRPR
honeybee TRPR [2] = assay: Competitive binding of TRPs to TRPR in Sf21 cells (displacement of TAMRA-TRP2/TAMRA-TRP3); set-up: species or system Apis mellifera
honeybee TRPR [3] = assay: Competitive binding of TRPs to TRPR in HEK293 cells (displacement of TAMRA-TRP2/TAMRA-TRP3); set-up: species or system Apis mellifera; conditions: HEK293
TRPR [4] = tested on: TRPR; remark: listed apart in the source
[5] = tested on: TRP2-induced ERK1/2 phosphorylation; assay: Effect of inhibitors on TRP2-induced ERK1/2 phosphorylation, HEK293 cells; type: cell-based, Homo sapiens
[6] = tested on: TRP2-induced ERK1/2 phosphorylation; assay: Effect of inhibitors on TRP2-induced ERK1/2 phosphorylation, Sf21 cells; type: cell-based, Spodoptera frugiperda
TRPR [7] = tested on: TRPR; remark: listed apart in the source
[8] = tested on: TRP2-mediated cAMP accumulation; assay: Effect of PTX, CTX, YM-254890 and H89 on TRP2-mediated cAMP accumulation, HEK293 cells expressing TRPR; type: cell-based, Homo sapiens
[9] = target: honeybee tachykinin-related peptide receptor (FLAG-TRPR) expressed in HEK293 cells (Apis mellifera)
honeybee tachykinin-related peptide receptor (FLAG-TRPR) expressed in HEK293 cells (Apis mellifera), sequence (A0ACM8RFV8 entry or part of it): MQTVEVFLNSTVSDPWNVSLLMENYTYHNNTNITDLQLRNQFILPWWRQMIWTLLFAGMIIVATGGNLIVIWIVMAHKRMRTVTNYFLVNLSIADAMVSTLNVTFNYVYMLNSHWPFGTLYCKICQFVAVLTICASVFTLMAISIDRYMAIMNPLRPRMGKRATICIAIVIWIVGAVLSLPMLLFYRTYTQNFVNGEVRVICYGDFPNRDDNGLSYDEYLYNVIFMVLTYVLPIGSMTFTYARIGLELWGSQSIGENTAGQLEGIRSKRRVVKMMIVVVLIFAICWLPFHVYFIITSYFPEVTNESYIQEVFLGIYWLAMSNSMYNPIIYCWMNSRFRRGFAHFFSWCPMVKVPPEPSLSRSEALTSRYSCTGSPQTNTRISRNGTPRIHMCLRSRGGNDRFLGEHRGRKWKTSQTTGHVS

[10] = target: honeybee tachykinin-related peptide receptor (FLAG-TRPR) expressed in Sf21 cells (Apis mellifera)
honeybee tachykinin-related peptide receptor (FLAG-TRPR) expressed in Sf21 cells (Apis mellifera), sequence (A0ACM8RFV8 entry or part of it): as above

[11] = target: honeybee tachykinin-related peptide receptor (FLAG-TRPR) expressed in HEK293 cells (Apis mellifera); remark: listed apart in the source
[12] = HEK293, 2 hr pretreatment, then TRP2 (10 nM or 1 μM) for 10 min
[13] = Sf21, 2 hr pretreatment, then TRP2 (10 nM or 1 μM) for 10 min

In the case of APMGFQGMRa [TRP3], the “increase of cAMP levels” value (TRPR [1]) is reported as “more than 10 fold”, the competitive binding (honeybee TRPR [2]; Log (M) -4, replicate 1) is reported as 26.3879 and the competitive binding (honeybee TRPR [2]; Log (M) -4, replicate 2) is reported as 30.2236. The competitive binding (honeybee TRPR [2]; Log (M) -4, replicate 3) was 35.2235, the competitive binding (honeybee TRPR [2]; Log (M) -5, replicate 1) was 39.1647 and the competitive binding (honeybee TRPR [2]; Log (M) -5, replicate 2) was 34.4531. The competitive binding (honeybee TRPR [2]; Log (M) -5, replicate 3) was 41.6285, the competitive binding (honeybee TRPR [2]; Log (M) -6, replicate 1) was 40.2510 and the competitive binding (honeybee TRPR [2]; Log (M) -6, replicate 2) was 48.0008. It also gave a competitive binding (honeybee TRPR [2]; Log (M) -6, replicate 3) of 38.3975, a competitive binding (honeybee TRPR [2]; Log (M) -7, replicate 1) of 53.7851 and a competitive binding (honeybee TRPR [2]; Log (M) -7, replicate 2) of 58.0646. The competitive binding (honeybee TRPR [2]; Log (M) -7, replicate 3) was 56.8212, the competitive binding (honeybee TRPR [2]; Log (M) -8, replicate 1) was 73.9138 and the competitive binding (honeybee TRPR [2]; Log (M) -8, replicate 2) was 70.3389. The competitive binding (honeybee TRPR [2]; Log (M) -8, replicate 3) was 76.0795, the competitive binding (honeybee TRPR [2]; Log (M) -9, replicate 1) was 79.8334 and the competitive binding (honeybee TRPR [2]; Log (M) -9, replicate 2) was 84.1204. For the same molecule, the competitive binding (honeybee TRPR [2]; Log (M) -9, replicate 3) was 84.2025, the competitive binding (honeybee TRPR [2]; Log (M) -10, replicate 1) was 93.5892 and the competitive binding (honeybee TRPR [2]; Log (M) -10, replicate 2) was 92.3234. It also gave a competitive binding (honeybee TRPR [2]; Log (M) -10, replicate 3) of 96.9419, a competitive binding (honeybee TRPR [2]; Log (M) -11, replicate 1) of 93.4444 and a competitive binding (honeybee TRPR [2]; Log (M) -11, replicate 2) of 100.0000. For the same molecule, the competitive binding (honeybee TRPR [2]; Log (M) -11, replicate 3) was 96.2965, the competitive binding (honeybee TRPR [2]; Log (M) -12, replicate 1) was 95.2946 and the competitive binding (honeybee TRPR [2]; Log (M) -12, replicate 2) was 98.1256. For the same molecule, the competitive binding (honeybee TRPR [2]; Log (M) -12, replicate 3) was 92.1545, the “competitive binding (residual TAMRA-TRP binding)” value (honeybee TRPR [3]; Log (M) -4, replicate 1) was 5.1560 and the “competitive binding (residual TAMRA-TRP binding)” value (honeybee TRPR [3]; Log (M) -4, replicate 2) was 4.9306. For the same molecule, the “competitive binding (residual TAMRA-TRP binding)” value (honeybee TRPR [3]; Log (M) -4, replicate 3) was 5.6578, the “competitive binding (residual TAMRA-TRP binding)” value (honeybee TRPR [3]; Log (M) -5, replicate 1) was 9.5134 and the “competitive binding (residual TAMRA-TRP binding)” value (honeybee TRPR [3]; Log (M) -5, replicate 2) was 5.2301. For the same molecule, the “competitive binding (residual TAMRA-TRP binding)” value (honeybee TRPR [3]; Log (M) -5, replicate 3) was 6.7532, the “competitive binding (residual TAMRA-TRP binding)” value (honeybee TRPR [3]; Log (M) -6, replicate 1) was 19.3191 and the “competitive binding (residual TAMRA-TRP binding)” value (honeybee TRPR [3]; Log (M) -6, replicate 2) was 12.3643. For the same molecule, the “competitive binding (residual TAMRA-TRP binding)” value (honeybee TRPR [3]; Log (M) -6, replicate 3) was 13.3614, the “competitive binding (residual TAMRA-TRP binding)” value (honeybee TRPR [3]; Log (M) -7, replicate 1) was 23.7138 and the “competitive binding (residual TAMRA-TRP binding)” value (honeybee TRPR [3]; Log (M) -7, replicate 2) was 20.6042. For the same molecule, the “competitive binding (residual TAMRA-TRP binding)” value (honeybee TRPR [3]; Log (M) -7, replicate 3) was 26.4738, the “competitive binding (residual TAMRA-TRP binding)” value (honeybee TRPR [3]; Log (M) -8, replicate 1) was 49.0125 and the “competitive binding (residual TAMRA-TRP binding)” value (honeybee TRPR [3]; Log (M) -8, replicate 2) was 48.4899. The “competitive binding (residual TAMRA-TRP binding)” value (honeybee TRPR [3]; Log (M) -8, replicate 3) was 40.9813, the “competitive binding (residual TAMRA-TRP binding)” value (honeybee TRPR [3]; Log (M) -9, replicate 1) was 72.5758 and the “competitive binding (residual TAMRA-TRP binding)” value (honeybee TRPR [3]; Log (M) -9, replicate 2) was 73.4731. The “competitive binding (residual TAMRA-TRP binding)” value (honeybee TRPR [3]; Log (M) -9, replicate 3) was 66.5477, the “competitive binding (residual TAMRA-TRP binding)” value (honeybee TRPR [3]; Log (M) -10, replicate 1) was 84.1720 and the “competitive binding (residual TAMRA-TRP binding)” value (honeybee TRPR [3]; Log (M) -10, replicate 2) was 90.8395. For the same molecule, the “competitive binding (residual TAMRA-TRP binding)” value (honeybee TRPR [3]; Log (M) -10, replicate 3) was 88.1290, the “competitive binding (residual TAMRA-TRP binding)” value (honeybee TRPR [3]; Log (M) -11, replicate 1) was 92.0860 and the “competitive binding (residual TAMRA-TRP binding)” value (honeybee TRPR [3]; Log (M) -11, replicate 2) was 97.3869. For the same molecule, the “competitive binding (residual TAMRA-TRP binding)” value (honeybee TRPR [3]; Log (M) -11, replicate 3) was 95.5950, the “competitive binding (residual TAMRA-TRP binding)” value (honeybee TRPR [3]; Log (M) -12, replicate 1) was 93.1313 and the “competitive binding (residual TAMRA-TRP binding)” value (honeybee TRPR [3]; Log (M) -12, replicate 2) was 100.0000. The “competitive binding (residual TAMRA-TRP binding)” value (honeybee TRPR [3]; Log (M) -12, replicate 3) was 92.9969 and the “intracellular Ca2+ levels” value (TRPR [4]) was “rose sharply”.

For pertussis toxin [PTX], the “inhibition of TRP/TRPR-mediated ERK activation” value [5] was “had no effect” and the “inhibition of TRP/TRPR-mediated ERK activation” value [6] was “had no effect”.

For “short neuropeptide F [SNF, reference compound]”, the “cAMP accumulation” value (TRPR [7]) was “did not induce any detectable cAMP accumulation” and the “cAMP accumulation” value (TRPR [1]) was “did not induce any detectable cAMP accumulation”.

For `COc1ccc2c(c1)c(C1=C(c3c[nH]c4ccccc34)C(=O)NC1=O)cn2CCCN(C)C` [Go6983], the “inhibition of TRP/TRPR-mediated ERK activation” value [5, 12] was “significant inhibition” and the “inhibition of TRP/TRPR-mediated ERK activation” value [6, 13] was “significant inhibition”.

cholera toxin [CTX] was tested, and the cAMP accumulation [8] was 18.981 and 16.723 and 16.035 and 22.197 and 20.493 and 23.072.

`Cl.Cl.O=S(=O)(NCCNC/C=C/c1ccc(Br)cc1)c1cccc2cnccc12` [H89] was tested, and the cAMP accumulation ([8]; Suppl.3B, with TRP2, replicate 1) was 18.636, the cAMP accumulation ([8]; Suppl.3B, with TRP2, replicate 2) was 15.003 and the cAMP accumulation ([8]; Suppl.3B, with TRP2, replicate 3) was 13.325. For the same molecule, the cAMP accumulation ([8]; Suppl.3B, with ddH2O (no TRP2), replicate 1) was 3.551, the cAMP accumulation ([8]; Suppl.3B, with ddH2O (no TRP2), replicate 2) was 2.309 and the cAMP accumulation ([8]; Suppl.3B, with ddH2O (no TRP2), replicate 3) was 2.639. For the same molecule, the “inhibition of TRP/TRPR-mediated ERK activation” value [5, 12] was “significant inhibition” and the “inhibition of TRP/TRPR-mediated ERK activation” value [6, 13] was “significant inhibition”.

corazonin [CRZ, reference compound] was tested, and the “cAMP accumulation” value (TRPR [7]) was “did not induce any detectable cAMP accumulation” and the “cAMP accumulation” value (TRPR [1]) was “did not induce any detectable cAMP accumulation”.

With `N#CC(=C(/N)Sc1ccccc1N)/C(C#N)=C(/N)Sc1ccccc1N` [U0126] the “inhibition of TRP/TRPR-mediated ERK activation” value [5, 12] was “significant inhibition” and the “inhibition of TRP/TRPR-mediated ERK activation” value [6, 13] was “significant inhibition”.

With “pigment-dispersing hormone [PDH, reference compound]” the “cAMP accumulation” value (TRPR [7]) was “did not induce any detectable cAMP accumulation” and the “cAMP accumulation” value (TRPR [1]) was “did not induce any detectable cAMP accumulation”.

B1: tachykinin-related peptide 3 (TRP3), unlabeled synthetic peptide (peptide)
peptide: APMGFQGMR-NH2
For B1, the luciferase activity (pCRE-Luc reporter of cAMP) of HEK293 cells co-transfected with pFLAG-TRPR, 1 μM TRP3, against vehicle vector [9] was > 10 fold.

B2: tachykinin-related peptide 2 (TRP2), unlabeled synthetic peptide (peptide)
peptide: ALMGFQGVR
modifications: ends and bridges not checked
B2 was tested, and the EC50 of ERK1/2 phosphorylation (Western blot) in Sf21 cells expressing TRPR, TRP2 from 0.1 pM to 1 μM for 10 min [10] was 1.68 nM, the EC50 of ERK1/2 phosphorylation (Western blot) in HEK293 cells expressing TRPR, TRP2 from 0.1 pM to 1 μM for 10 min [11] was 68 nM and the luciferase activity (pCRE-Luc reporter of cAMP) of HEK293 cells co-transfected with pFLAG-TRPR, 1 μM TRP2, against vehicle vector [9] was > 10 fold.
